According to patent US20100203110A1, “Therapeutics for Cancer Using 3-Bromopyruvate and Other Selective Inhibitors of ATP Production” (The Johns Hopkins University, priority 2006, published 2010):
pIC50: −log10 of the molar value.

Experiments:
[1] = system: VX2 tumor glycolysis; assay: Glycolytic activity (lactic acid formation) of VX2 tumor slices; assay type: cell-based, rabbit
Description: Glycolysis was assayed by monitoring the formation of lactic acid following the addition of glucose to a medium containing VX2 tumor slices. Specifically, freshly excised tumors were washed 3 times at 4° C. in 20 ml Chance Hess Medium containing 6.2 mM KCl, 154 mM NaCl, and 11 mM NaPi, pH 7.4. Slices, 1 g each, were then prior incubated for 30 min in a Lab-Line incubator-shaker at 37° C. in 2 ml of the same medium while shaking at 50 rpm. Glucose was then added to give a final concentration of 6 mM, after which the incubation/shaking process was continued with 0.2 ml samples being removed every 30 min for up to 2 h. These samples were subjected to centrifugation at 14,000 rpm in an Eppendorf Centrifuge (Model 5415C). Then, aliquots of the supernatant, 0.01 ml, were removed from each sample, diluted with 0.03 ml of water and subjected to lactic acid determination using the kit supplied by Sigma. The latter contains, in addition to lactic dehydrogenase and NAD+, hydrazine, and glycine buffer, pH 9.2. The mixture was incubated for 30 min at 25° C. after which the absorbance due to formation of NADH was determined at 340 nm using a Gilford Model 260 spectrophotometer. To assess the elevation of the glycolytic activity of the VX2 tumor over that of liver tissue, parallel studies were always carried out in an identical manner with 1 g liver slices derived from the host liver. Finally, in those cases where agents were tested for their capacity to inhibit glycolysis, these were introduced into the system at the prior incubation step with all subsequent steps being run in parallel with those described above for the VX2 tumor or liver alone.
The screen included the following 9 compounds: 2-deoxyglucose (2DOG), 2-fluoro-2-deoxyglucose, 6-fluoro-6-deoxyglucose, 3-O-methyl glucose, 5-thio-D-glucose-6-phosphate, L-glucose, D-xylose, D-lyxose, and 3-bromopyruvic acid (3BrPA). The screen was conducted by incubating VX2 tumor slices in a medium containing 6 mM glucose with 6 mM of each of these agents at 37° C. for 5 h. The use of 6 mM glucose in the medium was used to mimic the maximal amount of glucose that might be in the blood in a real in vivo situation.
To compare the inhibitory effects of 2DOG and 3BrPA on the glycolytic capacity of the isolated liver implanted VX2 tumor, various concentrations of 2DOG and 3BrPA were prior incubated for 30 min at 37° C. with 1 g VX2 tumor slices and glycolysis was monitored.

[2] = system: AS-30D hepatoma cells; assay: Killing of AS-30D hepatoma cells (trypan blue); assay type: cell-based, rat; settings: 5 mM, 12 h
Description: AS-30D hepatoma cells grown in the peritoneal cavity of Sprague Dawley female rats (see Materials) were adapted to grow in tissue culture in Dulbecco's modified Eagle's medium containing 10% fetal bovine serum. Cells were maintained at 37° C. in a humidified atmosphere containing 5% CO2, and counted in a Neubauer chamber after trypan blue dye addition (cell/dye volume=1/1) by visualization under a Nikon inverted microscope.
The studies described above using the VX2 tumor model for liver cancer predict that 2DOG and 3BrPA may have the capacity to kill hepatoma cells expressing the high glycolytic/high hexokinase phenotype. […] Cell killing was assessed in these experiments by counting those cells in which trypan blue had entered.

[3] = system: Sk-Hep1; assay: ATP levels after treatment, Sk-Hep1; assay type: cell-based; settings: 0.1, 0.2, 0.3 mM for 1 and 3 hours
Description: (§1) ATP levels were measured in various cell lines, e.g., HepG2, Sk-Hep1, and Vx-2 after 3-bromopyruvate treatment. In each case, cells were treated with increasing concentration of 3-bromopyruvate (0.1 mM, 0.2 mM, and 0.3 mM) for 1 and 3 hours before measuring ATP levels in the cell. FIGS. 5 (A-C) show the ATP depletion observed following 3-bromopyruvate treatment in HepG2, Sk-Hep1, and Vx-2 cell lines, respectively.

[4] = system: Vx-2; assay: ATP levels after treatment, Vx-2; assay type: cell-based, rabbit; settings: 0.1, 0.2, 0.3 mM for 1 and 3 hours
Description: as §1

[5] = system: HepG2; assay: Caspase-3 activity, HepG2; assay type: cell-based, human; settings: 1 mM for 3 hour
Description: (§2) Caspase-3 activity and reduced cell viability was also measured in cell lines (HepG2, THLE-2, and VX2 cell lines) following 3-bromopyruvate treatment (1 mM for 3 hour) (FIG. 6A). Caspase-3 activity increased in each cell line following treatment and cell viability decreased following treatment. An increase in caspase-3 activity indicated the mechanism of cell death is apoptotic. FIGS. 6 B and C show cell viability is reduced in each cell line with increasing 3-bromopyruvate concentration after 1 and 3 hours of treatment.

[6] = system: THLE-2; assay: Caspase-3 activity, THLE-2; assay type: cell-based; settings: 1 mM for 3 hour
Description: as §2

[7] = system: VX2; assay: Cell viability, VX2; assay type: cell-based, rabbit; settings: 1 mM for 3 hour
Description: as §2

[8] = system: VX2 tumor; assay: FDG uptake in orthotopic rabbit model of liver cancer, IA versus IV; assay type: in vivo
Description: To develop a new therapeutic strategy to cure patients with hepatocellular carcinoma, a similar series of experiments was conducted on the orthotopic rabbit model of liver cancer (VX2). The effects of 3-bromopyruvate injected intraarterially (IA) was compared to those of 3-bromopyruvate injected intravenously (N) on FDG uptake in the VX2 tumor. The optimal dose of 3-bromopyruvate for both IA and N administration was then determined through an extensive dose-response analysis. In the IA group, 3-bromopyruvate was infused over one hour, FDG injected at the 30-minute mark and all animals were then sacrificed one hour after the FDG injection. Tumors and all major organs were removed, weighed and analyzed in a gamma counter.

[9] = system: VX2 tumor; assay: Longitudinal survival studies in the VX2 rabbit model; assay type: in vivo
Source text: In a longitudinal study to investigate the effect of 3-bromopyruvate treatment in the VX2 rabbit model, it was observed that although the treated rabbits lived longer than the untreated ones (statistically significant), the treated rabbits were not cured of their tumors and died within weeks of treatment of massive tumor growth. The extremely aggressive nature of the VX2 tumor was not stopped by the treatment and the tumor re-grew despite the high initial percentage of cancer cell death. Further studies were thus needed to determine the optimal dose and method of infusion of 3-bromopyruvate to attain significant long-term survival, complete eradication of the tumor.
VX2 tumors are extremely aggressive and are rendered more aggressive and difficult to treat by the passage of this tumor from generation to generation (>100) in the thigh of a rabbit making each generation more virulent than the last. […] As described herein continuous intraarterial infusion of 1.7 mM 3-bromopyruvate is an effective and potent therapy for treating liver cancer.

[10] = IA group, infused over one hour

## O=C(O)C(=O)CBr [3-bromopyruvate]
[1]; 6 mM agent, 6 mM glucose, VX2 tumor slices, 37° C., 5 h
  inhibition of VX2 tumor glycolysis (screen): almost completely inhibited
[1]; VX2 tumor slices, 2DOG maximal (70%), 3BrPA complete
  concentration for maximal / complete inhibition of glycolysis: about 15 mM
[1]; prior incubated 30 min at 37° C. with 1 g VX2 tumor slices, read-out: half maximal inhibition of glycolysis
  pIC50: 2.62
[2]
  cell killing: all cells
[3]
  ATP levels: ATP depletion
[4]
  ATP levels: ATP depletion
[5]
  Caspase-3 activity: increased
[6]
  Caspase-3 activity: increased
[7]
  cell viability: decreased
[8]; [10]
  FDG uptake in any other organs: No difference in uptake
  reduction of FDG uptake in the tumor: 80%
[8]; N (intravenous) group
  FDG uptake in other organs: decreases in FDG uptake were also recorded in the lung, brain and liver
  decrease of FDG uptake in the tumor: 30%
[9]; VX2 rabbit model, not cured, tumor re-grew
  survival versus untreated rabbits: lived longer
[9]; animals with 100% tumor kill
  delay of tumor progression versus saline (IA) controls: 75%
